Data: publication PMC4305313, “A Novel Phthalimide Derivative, TC11, Has Preclinical Effects on High-Risk Myeloma Cells and Osteoclasts” (PLoS ONE, 2015)

Molecular target: T1, nucleophosmin 1 (NPM1) (Homo sapiens, UniProt P06748)
T1 construct: full length of NPM1, recombinant, expressed in E. coli
Test: SPR (Biacore […], NPM1 immobilized on NTA chip)
Type: binding

T1 sequence (P06748 whole entry): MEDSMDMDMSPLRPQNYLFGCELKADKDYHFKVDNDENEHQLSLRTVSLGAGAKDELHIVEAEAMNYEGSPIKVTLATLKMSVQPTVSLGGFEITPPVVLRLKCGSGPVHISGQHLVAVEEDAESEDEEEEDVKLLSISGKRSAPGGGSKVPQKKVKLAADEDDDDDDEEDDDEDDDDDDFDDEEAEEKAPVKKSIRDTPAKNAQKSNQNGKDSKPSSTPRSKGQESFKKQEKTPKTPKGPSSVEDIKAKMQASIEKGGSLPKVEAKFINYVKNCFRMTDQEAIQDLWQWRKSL

Row | Compound | Kd
1 | CC(C)c1cccc(C(C)C)c1N1C(=O)c2ccc(N)cc2C1=O [TC11, 2-(2,6-diisopropylphenyl)-5-amino-1H-isoindole-1,3-dione] | 62.3 nM
2 | Nc1cccc2c1CN(C1CCC(=O)NC1=O)C2=O (centres unmarked) [lenalidomide] | 766 nM
